Measured values taken from patent US5098920A, “1H-substituted-1,2,4-triazole compounds and methods of use thereof for treatment of cardiovascular disorders” (G. D. Searle & Co., priority 1990, dated 1992).
Read-outs that look alike come from different tables or passages of the source.

Columns and labels:
[1] = tested on: rabbit aortic rings; assay: Assay B: In Vitro Vascular Smooth Muscle-Response for AII (antagonist activity in rabbit aortic rings); format: cell-based, rabbit (male New Zealand white); conditions: Oryctolagus cuniculus, rabbit aorta rings, antagonist at 10^-5 M, read-out: PA2 (converted)
Method: Assay B: In Vitro Vascular Smooth Muscle-Response for AII The compounds of the invention were tested for antagonist activity in rabbit aortic rings. Male New Zealand white rabbits (2-2.5 kg) were sacrificed using an overdose of pentobarbital and exsanguinated via the carotid arteries. The thoracic aorta was removed, cleaned of adherent fat and connective tissue and then cut into 3-mm ring segments. The endothelium was removed from the rings by gently sliding a rolled-up piece of filter paper into the vessel lumen. The rings were then mounted in a water-jacketed tissue bath, maintained at 37° C., between moveable and fixed ends of a stainless steel wire with the moveable end attached to an FTO3 Grass transducer coupled to a Model 7D Grass Polygraph for recording isometric force responses. […] The preparations were equilibrated for one hour before approximately one gram of passive tension was placed on the rings. Angiotensin II concentration-response curves were then recorded (3×10^-10 to 1×10^-5 M). Each concentration of AII was allowed to elicit its maximal contraction, and then AII was washed out repeatedly for 30 minutes before rechallenging with a higher concentration of AII. Aorta rings were exposed to the test antagonist at 10^-5 M for 5 minutes before challenging with AII. Adjacent segments of the same aorta ring were used for all concentration-response curves in the presence or absence of the test antagonist. The effectiveness of the test compound was expressed in terms of pA2 values and were calculated according to H. O. Schild [Br. J. Pharmacol. Chemother., 2, 189-206 (1947)]. […] Each test antagonist was evaluated in aorta rings from two rabbits.

[2] = biological target: smooth muscle angiotensin II receptor; assay: Assay A: Angiotensin II Binding Activity (displacement of 125I-AII, rat uterine membrane preparation); conditions: 50% displacement of specifically bound 125I-AII; rat uterine membranes; 25° C., 60 min
Method: Assay A: Angiotensin II Binding Activity
Compounds of the invention were tested for ability to bind to the smooth muscle angiotensin II receptor using a rat uterine membrane preparation. […] Other chemicals were obtained from Sigma Chemical Co. This assay was carried out according to the method of Douglas et al [Endocrinology, 106, 120-124 (1980)]. Rat uterine membranes were prepared from fresh tissue. All procedures were carried out at 4° C. Uteri were stripped of fat and homogenized in phosphate-buffered saline at pH 7.4 containing 5 mM EDTA. The homogenate was centrifuged at 1500×g for 20 min., and the supernatant was recentrifuged at 100,000×g for 60 min. The pellet was resuspended in buffer consisting of 2 mM EDTA and 50 mM Tris-HCl (pH 7.5) to a final protein concentration of 4 mg/ml. […] The reaction was initiated by the addition of membrane protein and the mixture was incubated at 25° C. for 60 min. The incubation was terminated with ice-cold 50 mM Tris-HCl (pH 7.5) and the mixture was filtered to separate membrane-bound labelled peptide from the free ligand. The incubation tube and filter were washed with ice-cold buffer. Filters were assayed for radioactivity in a Micromedic gamma counter. Nonspecific binding was defined as binding in the presence of 10 μM of unlabelled AII. Specific binding was calculated as total binding minus nonspecific binding. […] Binding data were aralyzed by a nonlinear least-squares curve fitting program.

[3] = tested on: AII pressor response; assay: Assay C: In Vivo Intraduodenal Pressor Assay Response for AII Antagonists; design: species or system rat (male Sprague-Dawley); conditions: rats; for Inhibition: percent inhibition of AII (30 ng/kg i.v.) pressor response; for Duration: time from peak percent inhibition to 50% of peak
Method: Assay C: In Vivo Intraduodenal Pressor Assay Response for AII Antagonists
Male Sprague-Dawley rats weighing 225-300 grams were anesthetized with Inactin (100 mg/kg, i.p.) and catheters were implanted into the trachea, femoral artery, femoral vein and duodenum. Arterial pressure was recorded from the femoral artery catheter on a Gould chart recorder (Gould, Cleveland, Ohio). The fe:moral vein catheter was used for injections of angiotensin II, mecamylamine and atropine. The tracheal cathete'r allows for airway patency, and the duodenal catheter was used for intraduodenal (i.d.) administration of test compounds. After surgery, the rats were allowed to equilibrate for 30 minutes. Mecamylamine (3 mg/kg, 0.3 ml/kg) and atropine (400 ug/kg, 0.3 ml/kg) were then given i.v. to produce ganglion blockade. These compounds were administered every 90 minutes throughout the test procedure. Angiotensin II was given in bolus does i.v. (30 ng/kg in saline with 0.5% bovine serum albumin, 0.1 ml/kg) every 10 minutes three times or until the increase in arterial pressure produced was within 3 mmHg for two consecutive AII injections. The last two AII injections were averaged and were taken as the control AII pressor response. Ten minutes after the final control AII injection, the test compound (dissolved in sodium bicarbonate) was administered i.d. at a dose of 30 or 100 mg/kg in a volume of 0.2 ml. Angiotensin II injections were then given 5, 10, 20, 30, 45, 60, 75, 90, and 120 minutes after administration of the test compound and response of arterial pressure was monitored. The response to AII was calculated as percent of the control response and then the percent inhibition is calculated as 100 minus the percent control response. Duration of action of a test compound was defined as the time from peak percent inhibition to 50% of peak. One compound at one dose was tested in each rat. Each test compound was tested in two rats and the values for the two rats were averaged.

[4] = tested on: angiotensin II receptor; conditions: cited from earlier work; for angiotensin II antagonist activity: binding experiments, functional assays and in vivo tests, literature
[5] = only printed value, or first of two printed values

SMILES	IC50 [2]	Kb [1, 5]	Kb ([1]; second of two values)	other results
CNCC(=O)N[C@@H](CCCN=C(N)N)C(=O)N[C@H](C(=O)N[C@@H](Cc1ccc(O)cc1)C(=O)N[C@H](C(=O)N[C@@H](Cc1cnc[nH]1)C(=O)N1CCC[C@H]1C(=O)N[C@@H](C)C(=O)O)C(C)C)C(C)C [Saralasin]				residual agonist activity ([4]; background statement): significant residual agonist activity
CCCCc1nc(C(F)(F)CCC)n(Cc2ccc(-c3ccccc3-c3nnn[nH]3)cc2)n1 [Example 11, 5-[4'-[[3-butyl-5-(1,1-difluorobutyl)-1H-1,2,4-triazol-1-yl]methyl][1,1'-biphenyl]-2-yl]-1H-tetrazole]	160 nM	355 nM	170 nM	
CCCCCc1nc(CCCCC)n(Cc2ccc(-c3ccccc3-c3nnn[nH]3)cc2)n1 [Example 13, 5-[4'-[(3,5-dipentyl-1H-1,2,4-triazol-1-yl)methyl][1,1'-biphenyl]-2-yl]-1H-tetrazole]		2 nM	1.41 nM	
CCCCc1nc(Cl)c(CC(=O)O)n1Cc1ccccc1Cl [2-n-butyl-4-chloro-1-(2-chlorobenzyl)imidazole-5-acetic acid]				angiotensin II antagonist activity [4]: specific competitive angiotensin II antagonist activity
CCCCc1nc(CCCC)n(Cc2ccc(-c3ccccc3C(=O)O)cc2)n1 [Example 2, 4'-[(3,5-dibutyl-1H-1,2.4-triazol-1-yl)methyl][1,1'-biphenyl]-2-carboxylic acid]		33.1 nM		Inhibition ([3]; 30 mg/kg i.d.): 98%
CCCCc1nc(Cl)c(CC(=O)O)n1Cc1ccccc1[N+](=O)[O-] [2-butyl-4-chloro-1-(2-nitrobenzyl)imidazole-5-acetic acid]				angiotensin II antagonist activity [4]: specific competitive angiotensin II antagonist activity
CCCCc1nc(Cl)nn1Cc1ccc(-c2ccccc2C(=O)O)cc1 [Example 6, 4'-[(5-butyl-3-chloro-1H-1,2,4-triazol-1-yl)methyl][1,1'-biphenyl]-2-carboxylic acid]		204 nM		Inhibition ([3]; 100 mg/kg i.d.): 90%; Duration ([3]; 100 mg/kg i.d.): 120 min

More lines, main results first:

IC50 [2]	SMILES	Kb [1, 5]	Kb ([1]; second of two values)	other results
5.4 nM	CCCCc1nc(CCCC)n(Cc2ccc(-c3ccccc3-c3nnn[nH]3)cc2)n1 [Example 3, 5-[4'-[(3,5-dibutyl-1H-1,2,4-triazol-1-yl)methyl][1,1'-biphenyl]2-yl]-1H-tetrazole]	2 nM		Inhibition ([3]; 30 mg/kg i.d.): 100%; Duration ([3]; 30 mg/kg i.d.): ≥ 200 min
6 nM	CCCc1nc(CCC)n(Cc2ccc(-c3ccccc3-c3nnn[nH]3)cc2)n1 [Example 12, 5-[4'-[(3,5-dipropyl-1H-1,2,4-triazol-1-yl)methyl][1,1'-biphenyl]-2-yl]-1H-tetrazole]	2.19 nM	2.57 nM	
1700 nM	CCCCc1nc(Cl)n(Cc2ccc(-c3ccccc3C(=O)O)cc2)n1 [Example 8, 4'-[(3-butyl-5-chloro-1H-1,2,4-triazol-1-yl)methyl][1,1'-biphenyl]-2-carboxylic acid]			
200 nM	CCCCc1nc(CCCC)n(Cc2ccc(-c3ccccc3C(=O)NNS(=O)(=O)C(F)(F)F)cc2)n1 [Example 5, 4'-[(3,5-dibutyl-1H-1,2,4-triazol-1-yl)methyl][1,1'-biphenyl]-2-carboxylicacid, 2-[(trifluoromethyl)sulfonyl]hydrazide]	63.1 nM		Inhibition ([3]; 100 mg/kg i.d.): 38%; Duration ([3]; 100 mg/kg i.d.): 20 to 30 min
7.2 nM	CCCCc1nc(CCC)nn1Cc1ccc(-c2ccccc2-c2nnn[nH]2)cc1 [Example 14, 5-[4'-[(5-butyl-3-propyl-1H-1,2,4-triazol-1-yl)methyl]-[1,1'-biphenyl]-2-yl]-1H-tetrazole]	1.45 nM	1.95 nM	
16 nM	CCCCc1nc(CCC)n(Cc2ccc(-c3ccccc3-c3nnn[nH]3)cc2)n1 [Example 15, 5-[4'-[(3-butyl-5-propyl-1H-1,2,4-triazol-1-yl)methyl]-[1,1'-biphenyl]-2-yl]-1H-tetrazole]	4.9 nM	5.01 nM	
700 nM	CCCCc1nc(Cl)n(Cc2ccc(-c3ccccc3-c3nnn[nH]3)cc2)n1 [Example 9]	40.7 nM		Inhibition ([3]; 30 mg/kg i.d.): 100%; Duration ([3]; 30 mg/kg i.d.): 230 min
4.9 nM	CCCCc1nc(C(F)(F)CCC)nn1Cc1ccc(-c2ccccc2-c2nnn[nH]2)cc1 [Example 10, 5-[4'-[[5-butyl-3-(1,1-difluorobutyl)-1H-1,2,4-triazol-1-yl]methyl][1,1'-biphenyl]-2-yl]-1H-tetrazole]	6.46 nM	25.7 nM	Inhibition ([3]; 30 mg/kg i.d.): 100%; Duration ([3]; 30 mg/kg i.d.): 240 min
84 nM	CCCCc1nc(Cl)nn1Cc1ccc(-c2ccccc2-c2nnn[nH]2)cc1 [Example 7]	9.33 nM		
6.4 nM	CCCCc1nc(CCC(C)C)n(Cc2ccc(-c3ccccc3-c3nnn[nH]3)cc2)n1 [Example 16, 5-[4'-[(3-butyl-5-isopentyl-1H-1,2,4-triazol-1-yl)methyl]-[1,1'-biphenyl]-2-yl]-1H-tetrazole]	1.12 nM	0.575 nM	
4 nM	CCCCc1nc(CCC(C)C)nn1Cc1ccc(-c2ccccc2-c2nnn[nH]2)cc1 [Example 17, 5-[4'-[(5-butyl-3-isopentyl-1H-1,2,4-triazol-1-yl]methyl)[1,1'-biphenyl]-2-yl]-1H-tetrazole]	2.29 nM	3.98 nM	
